Results on 8 compounds are retold here after ChEMBL document CHEMBL1154195, “Synthesis and binding affinity of potential atypical antipsychotics with the tetrahydroquinazolinone motif” (Bioorg Med Chem Lett, 2009).

The target of assay [1] is 5-hydroxytryptamine receptor 2A (Homo sapiens, UniProt P28223). The experiment in a line: Displacement of [3H]ketanserin from human cloned 5HT2A receptor. In general terms: Loss of bound radioactivity is the signal in a displacement assay; it reports binding, not function.
5-hydroxytryptamine receptor 2A, sequence (P28223 whole entry): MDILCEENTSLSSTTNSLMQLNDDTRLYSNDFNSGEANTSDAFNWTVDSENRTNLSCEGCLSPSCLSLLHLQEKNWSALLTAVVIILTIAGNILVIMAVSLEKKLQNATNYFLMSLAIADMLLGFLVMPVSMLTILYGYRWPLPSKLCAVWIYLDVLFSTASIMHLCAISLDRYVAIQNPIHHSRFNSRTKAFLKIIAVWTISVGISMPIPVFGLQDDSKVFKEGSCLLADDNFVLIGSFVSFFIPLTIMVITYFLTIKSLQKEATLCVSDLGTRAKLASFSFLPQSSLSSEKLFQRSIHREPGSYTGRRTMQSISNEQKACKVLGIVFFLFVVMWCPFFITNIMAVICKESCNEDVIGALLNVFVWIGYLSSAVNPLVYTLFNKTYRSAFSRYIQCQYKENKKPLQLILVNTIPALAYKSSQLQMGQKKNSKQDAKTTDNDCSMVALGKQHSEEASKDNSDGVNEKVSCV
Assay [2] has as its target D(2) dopamine receptor (Homo sapiens) (UniProt P14416). In words: Displacement of [3H]spiperone from human cloned dopamine D2 receptor at 10 uM.
The species entered for another assay is Homo sapiens. The experiment in a line: Ratio of pKi for human cloned 5HT2A receptor to pKi for human cloned dopamine D2 receptor.
The next assay concerns the target D(3) dopamine receptor (Homo sapiens, UniProt P35462).
For a further assay, the target named is D(1A) dopamine receptor (Homo sapiens, UniProt P21728).
D(1A) dopamine receptor, sequence (P21728 whole entry): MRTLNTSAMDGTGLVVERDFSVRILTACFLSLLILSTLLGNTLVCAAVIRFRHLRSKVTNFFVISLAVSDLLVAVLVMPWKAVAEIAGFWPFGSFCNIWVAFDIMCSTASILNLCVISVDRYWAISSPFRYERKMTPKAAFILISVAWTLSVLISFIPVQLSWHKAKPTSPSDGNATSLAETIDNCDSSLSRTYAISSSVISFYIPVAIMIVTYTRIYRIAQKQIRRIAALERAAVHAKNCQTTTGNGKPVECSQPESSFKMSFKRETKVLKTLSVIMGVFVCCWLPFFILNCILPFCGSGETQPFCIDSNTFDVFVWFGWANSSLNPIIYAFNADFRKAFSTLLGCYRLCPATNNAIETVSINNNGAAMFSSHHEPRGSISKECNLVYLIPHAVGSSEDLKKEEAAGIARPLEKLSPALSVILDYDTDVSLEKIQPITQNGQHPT
For assay [3], the target named is T1, 5-hydroxytryptamine receptor 2C (Homo sapiens, UniProt P28335).
T1 sequence (P28335 whole entry): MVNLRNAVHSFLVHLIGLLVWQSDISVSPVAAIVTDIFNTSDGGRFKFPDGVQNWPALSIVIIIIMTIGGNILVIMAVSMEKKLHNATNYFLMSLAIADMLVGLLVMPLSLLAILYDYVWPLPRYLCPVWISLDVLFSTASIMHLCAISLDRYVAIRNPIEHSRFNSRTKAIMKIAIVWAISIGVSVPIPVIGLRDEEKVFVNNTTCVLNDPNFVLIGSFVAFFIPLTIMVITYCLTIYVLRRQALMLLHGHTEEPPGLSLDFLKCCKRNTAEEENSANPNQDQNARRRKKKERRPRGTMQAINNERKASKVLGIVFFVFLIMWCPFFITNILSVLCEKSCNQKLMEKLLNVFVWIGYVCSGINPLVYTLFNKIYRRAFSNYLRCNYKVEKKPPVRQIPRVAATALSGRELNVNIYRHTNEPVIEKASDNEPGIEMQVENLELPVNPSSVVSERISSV
The experiment in a line: Displacement of [3H]mesulergine from human 5HT2C receptor.

Some results are limits rather than exact numbers.

D(3) dopamine receptor, sequence (P35462 whole entry): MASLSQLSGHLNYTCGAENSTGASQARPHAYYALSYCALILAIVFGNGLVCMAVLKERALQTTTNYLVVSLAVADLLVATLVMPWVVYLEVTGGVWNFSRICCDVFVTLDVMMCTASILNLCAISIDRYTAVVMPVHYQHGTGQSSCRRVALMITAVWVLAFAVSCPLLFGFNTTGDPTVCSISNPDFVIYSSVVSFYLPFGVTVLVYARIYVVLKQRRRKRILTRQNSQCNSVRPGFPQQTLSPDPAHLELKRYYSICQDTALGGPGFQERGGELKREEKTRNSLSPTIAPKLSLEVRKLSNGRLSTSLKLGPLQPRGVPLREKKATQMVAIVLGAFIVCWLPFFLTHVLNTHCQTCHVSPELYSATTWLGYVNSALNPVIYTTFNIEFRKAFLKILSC
D(2) dopamine receptor (Homo sapiens), sequence (P14416 whole entry): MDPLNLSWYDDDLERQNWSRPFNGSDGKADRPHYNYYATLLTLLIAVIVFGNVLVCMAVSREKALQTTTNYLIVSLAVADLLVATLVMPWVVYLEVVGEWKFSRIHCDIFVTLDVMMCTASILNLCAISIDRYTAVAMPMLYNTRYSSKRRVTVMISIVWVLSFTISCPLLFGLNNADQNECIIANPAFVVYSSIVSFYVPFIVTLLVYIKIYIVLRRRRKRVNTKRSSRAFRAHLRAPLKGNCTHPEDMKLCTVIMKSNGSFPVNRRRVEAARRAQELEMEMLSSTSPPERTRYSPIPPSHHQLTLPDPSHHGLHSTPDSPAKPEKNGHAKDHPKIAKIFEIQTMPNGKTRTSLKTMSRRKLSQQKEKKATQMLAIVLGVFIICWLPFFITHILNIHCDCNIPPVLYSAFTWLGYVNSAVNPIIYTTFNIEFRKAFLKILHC
Description for D(1A) dopamine receptor: Displacement of [3H]SCH23390 from human dopamine D1 receptor
Description for D(3) dopamine receptor: Displacement of [3H]spiperone from human dopamine D3 receptor

In general, Ki refers to the dissociation constant of the complex between target and ligand, obtained from inhibition or displacement. High values mean a looser hold on the target, low ones a stronger hold on the target. The term inhibition denotes the percentage by which the read-out fell short of the control. Turning to `CSc1ncc2c(n1)CC(CN1CCC(C(=O)c3ccc(F)cc3)CC1)CC2=O` (stereo not drawn), in assay [1], the affinity corresponds to a Ki of 0.102 µM. This compound also displayed an inhibition in assay [2] of less than 60%.
With `O=C1CC(CN2CCC(C(=O)c3ccc(F)cc3)CC2)Cc2ncncc21` (stereo not drawn), the affinity in assay [1] corresponds to a Ki of 0.309 µM. Moreover, the Ratio pKi in the assay listed under Homo sapiens was 1.05.
The like results for `O=C1CC(CN2CCC(c3noc4cc(F)ccc34)CC2)Cc2nc(-c3ccccc3)ncc21` (stereo not drawn) were, in that order, 0.126 µM and 0.92.
`O=C1CC(CN2CCC(C(=O)c3ccc(F)cc3)CC2)Cc2nc(-c3ccccc3)ncc21` (stereo not drawn): affinity in assay [1] was put at a Ki of 0.631 µM. The same compound returned an inhibition in assay [2] of less than 60%.
In the case of `CNc1ncc2c(n1)CC(CN1CCC(c3noc4cc(F)ccc34)CC1)CC2=O` (stereo not drawn), the inhibitory constant (Ki) was 0.0024 µM in assay [1], 0.2 µM at D(3) dopamine receptor, 0.0427 µM at D(1A) dopamine receptor and greater than 10 µM in assay [3]. In addition, the Ratio pKi in the assay filed under Homo sapiens turned out to be 1.18.
As for `CSc1ncc2c(n1)CC(CN1CCC(c3noc4cc(F)ccc34)CC1)CC2=O` (stereo not drawn), the Ki in assay [1] is 0.00457 µM; at D(3) dopamine receptor, 0.0447 µM; in assay [3], greater than 10 µM.
As to `CNc1ncc2c(n1)CC(CN1CCC(C(=O)c3ccc(F)cc3)CC1)CC2=O` (stereo not drawn), the Ki in assay [1] was 0.00646 µM. The Ratio pKi in the assay filed under Homo sapiens was 1.23.
For `O=C1CC(CN2CCC(c3noc4cc(F)ccc34)CC2)Cc2ncncc21` (stereo not drawn), the Ki in assay [1] was 0.0234 µM; on D(3) dopamine receptor, 0.282 µM; at D(1A) dopamine receptor, 0.135 µM; in assay [3] it was 0.501 µM. Moreover, the Ratio pKi in the assay filed under Homo sapiens is 1.12.
